Measurements: the NIST ThermoML archive (doi:10.1016/j.jct.2015.12.021)

Settings: Liquid

CC(C)CC(C)(C)C [2,2,4-trimethylpentane]
viscosity [mPa·s]
Settings	293.15 K	298.15 K	313.15 K	323.15 K	333.15 K	348.15 K	353.15 K
100 kPa, Vibrating wire viscometry	0.5064	0.4746	0.4035	0.3645	0.3265	0.2829	0.2738
1000 kPa, Vibrating wire viscometry	0.51	0.4819	0.4114	0.3694	0.3296	0.2863	0.2748
5000 kPa, Falling or rolling sphere viscometry	0.5412	–	0.4251	–	0.3468	–	–
5000 kPa, Vibrating wire viscometry	0.5399	0.509	0.4353	0.3915	0.3515	0.306	0.2923
10000 kPa, Falling or rolling sphere viscometry	0.5744	–	0.4517	–	0.37	–	–
10000 kPa, Vibrating wire viscometry	0.5733	0.5388	0.4633	0.4157	0.3754	0.3274	0.3175
20000 kPa, Falling or rolling sphere viscometry	0.6401	–	0.5129	–	0.4153	–	–
20000 kPa, Vibrating wire viscometry	0.6366	0.6027	0.5177	0.464	0.4216	0.3692	0.357
30000 kPa, Falling or rolling sphere viscometry	0.7047	–	0.5662	–	0.459	–	–
30000 kPa, Vibrating wire viscometry	0.7059	0.6672	0.5775	0.5146	0.4705	0.4131	0.3966
40000 kPa, Falling or rolling sphere viscometry	0.7738	–	0.6128	–	0.5083	–	–
40000 kPa, Vibrating wire viscometry	0.7817	0.7394	0.6351	0.5714	0.5232	0.4565	0.4379
50000 kPa, Vibrating wire viscometry	0.8608	0.8154	0.6902	0.6255	0.579	0.5022	0.4853
60000 kPa, Falling or rolling sphere viscometry	0.9262	–	0.7307	–	0.6083	–	–
60000 kPa, Vibrating wire viscometry	0.9567	0.8956	0.7509	0.6832	0.6246	0.5476	0.5294
70000 kPa, Vibrating wire viscometry	1.042	0.9815	0.8173	0.742	0.6779	0.6049	0.5738
80000 kPa, Falling or rolling sphere viscometry	1.115	–	0.8553	–	0.6981	–	–
80000 kPa, Vibrating wire viscometry	1.127	1.07	0.8861	0.7969	0.728	0.6507	0.6288
100000 kPa, Falling or rolling sphere viscometry	1.298	–	1.024	–	0.8101	–	–
100000 kPa, Vibrating wire viscometry	1.316	1.234	1.045	0.9249	0.8361	0.7538	0.7176
120000 kPa, Falling or rolling sphere viscometry	–	–	1.185	–	0.9406	–	–
120000 kPa, Vibrating wire viscometry	1.518	1.435	1.195	1.068	0.9606	0.864	0.8245
140000 kPa, Vibrating wire viscometry	1.739	1.648	1.363	1.21	1.095	0.977	0.9332

Cc1ccc(C)c(C)c1 [1,2,4-trimethylbenzene]
viscosity [mPa·s]
Settings	293.15 K	313.15 K	333.15 K	353.15 K
100 kPa, Vibrating wire viscometry	0.8929	0.6989	0.5596	0.4527
1000 kPa, Vibrating wire viscometry	0.9065	0.7096	0.5646	0.4566
5000 kPa, Falling or rolling sphere viscometry	0.913	0.7254	0.5819	0.4715
5000 kPa, Vibrating wire viscometry	0.9417	0.7359	0.5885	0.4711
10000 kPa, Falling or rolling sphere viscometry	0.9568	0.7531	0.6058	0.492
10000 kPa, Vibrating wire viscometry	0.9769	0.7606	0.6066	0.4886
20000 kPa, Falling or rolling sphere viscometry	1.042	0.8131	0.6529	0.532
20000 kPa, Vibrating wire viscometry	1.061	0.8203	0.6476	0.5283
30000 kPa, Falling or rolling sphere viscometry	1.137	0.8704	0.7014	0.571
30000 kPa, Vibrating wire viscometry	1.148	0.8894	0.6942	0.5626
40000 kPa, Falling or rolling sphere viscometry	1.224	0.9344	0.7504	0.6125
40000 kPa, Vibrating wire viscometry	1.233	0.9528	0.7426	0.5993
50000 kPa, Vibrating wire viscometry	1.336	1.026	0.7922	0.6375
60000 kPa, Falling or rolling sphere viscometry	–	1.07	0.8467	0.6967
60000 kPa, Vibrating wire viscometry	1.435	1.1	0.8456	0.6768
70000 kPa, Vibrating wire viscometry	1.566	1.171	0.9004	0.7177
80000 kPa, Falling or rolling sphere viscometry	–	1.25	0.9594	0.7819
80000 kPa, Vibrating wire viscometry	1.693	1.249	0.9675	0.7606
100000 kPa, Falling or rolling sphere viscometry	–	–	1.086	0.8778
100000 kPa, Vibrating wire viscometry	1.952	1.415	1.094	0.8518
120000 kPa, Falling or rolling sphere viscometry	–	–	1.228	0.9727
120000 kPa, Vibrating wire viscometry	2.288	1.599	1.221	0.9515
140000 kPa, Vibrating wire viscometry	2.668	1.824	1.343	1.065
